According to ChEMBL document CHEMBL3045554, “Synthesis and antimicrobial screening of N-(1-methyl-1H-pyrazole-4-carbonyl)-thiourea derivatives” (2012):
≈ marks a conversion by molar mass, not a printed value. Blank lines part the entries; values can stand above or below the compound they belong to. Calls of active or inactive are those of the source. The calls are words filed in the database; no cut-off is given here.

How the values were obtained:
Acinetobacter baumannii [1] = assay: Effect on amylase production in Acinetobacter baumannii 15896 after 24 hr by starch hydrolysis assay; assay type: functional, organism-based
Staphylococcus aureus [2] = assay: Effect on esculethol production in Staphylococcus aureus after 24 hr by esculin hydrolysis test; assay type: functional, organism-based
Bacillus subtilis [3] = assay: Effect on esculethol production in Bacillus subtilis 10.10.2006 after 24 hr by esculin hydrolysis test; assay type: functional, organism-based
Enterococcus faecalis [4] = assay: Effect on DNase production in Enterococcus faecalis 13773 after 24 hr; assay type: functional, organism-based
Enterococcus faecalis [5] = assay: Effect on esculethol production in Enterococcus faecalis 13773 after 24 hr by esculin hydrolysis test; assay type: functional, organism-based
Staphylococcus aureus [6] = assay: Effect on amylase production in Staphylococcus aureus after 24 hr by starch hydrolysis assay; assay type: functional, organism-based
Acinetobacter baumannii [7] = assay: Effect on DNase production in Acinetobacter baumannii 15896 after 24 hr; assay type: functional, organism-based
Acinetobacter baumannii [8] = assay: Inhibition of caseinase production in Acinetobacter baumannii 15896 after 24 hr by casein hydrolysis assay; assay type: functional, organism-based
Pseudomonas aeruginosa [9] = assay: Effect on lipase production in Pseudomonas aeruginosa 5541 after 7 days; assay type: functional, organism-based
Enterococcus faecalis [10] = assay: Antimicrobial activity against Enterococcus faecalis 13773 by microdilution method; assay type: functional
Enterococcus faecalis [11] = assay: Inhibition of caseinase production in Enterococcus faecalis 13773 after 24 hr by casein hydrolysis assay; assay type: functional, organism-based
Acinetobacter baumannii [12] = assay: Effect on lipase production in Acinetobacter baumannii 15896 after 7 days; assay type: functional, organism-based
Staphylococcus aureus [13] = assay: Effect on lipase production in Staphylococcus aureus after 7 days; assay type: functional, organism-based
Staphylococcus aureus [14] = assay: Inhibition of lecithinase production in Staphylococcus aureus after 7 days; assay type: functional, organism-based
Bacillus subtilis [15] = assay: Effect on DNase production in Bacillus subtilis 10.10.2006 after 24 hr; assay type: functional, organism-based
Klebsiella pneumoniae [16] = assay: Effect on esculethol production in Klebsiella pneumoniae 126/2007 after 24 hr by esculin hydrolysis test; assay type: functional, organism-based
Klebsiella pneumoniae [17] = assay: Effect on amylase production in Klebsiella pneumoniae 126/2007 after 24 hr by starch hydrolysis assay; assay type: functional, organism-based
Bacillus subtilis [18] = assay: Inhibition of lecithinase production in Bacillus subtilis 10.10.2006 after 7 days; assay type: functional, organism-based
Enterococcus faecalis [19] = assay: Effect on lipase production in Enterococcus faecalis 13773 after 7 days; assay type: functional, organism-based
Staphylococcus aureus [20] = assay: Antimicrobial activity against Staphylococcus aureus by microdilution method; assay type: functional
Bacillus subtilis [21] = assay: Effect on gelatinase production in Bacillus subtilis 10.10.2006 after 24 hr by gelatin hydrolysis test; assay type: functional, organism-based
Klebsiella pneumoniae [22] = assay: Effect on gelatinase production in Klebsiella pneumoniae 126/2007 after 24 hr by gelatin hydrolysis test; assay type: functional, organism-based
Escherichia coli [23] = assay: Inhibition of caseinase production in Escherichia coli 637/2007 after 24 hr by casein hydrolysis assay; assay type: functional, organism-based
Staphylococcus aureus [24] = assay: Inhibition of caseinase production in Staphylococcus aureus after 24 hr by casein hydrolysis assay; assay type: functional, organism-based
Pseudomonas aeruginosa [25] = assay: Inhibition of caseinase production in Pseudomonas aeruginosa 5541 after 24 hr by casein hydrolysis assay; assay type: functional, organism-based
Escherichia coli [26] = assay: Effect on amylase production in Escherichia coli 637/2007 after 24 hr by starch hydrolysis assay; assay type: functional, organism-based
Enterococcus faecalis [27] = assay: Effect on gelatinase production in Enterococcus faecalis 13773 after 24 hr by gelatin hydrolysis test; assay type: functional, organism-based
Enterococcus faecalis [28] = assay: Inhibition of lecithinase production in Enterococcus faecalis 13773 after 7 days; assay type: functional, organism-based
Pseudomonas aeruginosa [29] = assay: Antimicrobial activity against Pseudomonas aeruginosa 5541 by microdilution method; assay type: functional
Acinetobacter baumannii [30] = assay: Antimicrobial activity against Acinetobacter baumannii 15896 by microdilution method; assay type: functional
Pseudomonas aeruginosa [31] = assay: Effect on DNase production in Pseudomonas aeruginosa 5541 after 24 hr; assay type: functional, organism-based
Escherichia coli [32] = assay: Effect on esculethol production in Escherichia coli 637/2007 after 24 hr by esculin hydrolysis test; assay type: functional, organism-based
Bacillus subtilis [33] = assay: Inhibition of caseinase production in Bacillus subtilis 10.10.2006 after 24 hr by casein hydrolysis assay; assay type: functional, organism-based
Klebsiella pneumoniae [34] = assay: Inhibition of lecithinase production in Klebsiella pneumoniae 126/2007 after 7 days; assay type: functional, organism-based
Bacillus subtilis [35] = assay: Effect on amylase production in Bacillus subtilis 10.10.2006 after 24 hr by starch hydrolysis assay; assay type: functional, organism-based
Pseudomonas aeruginosa [36] = assay: Effect on amylase production in Pseudomonas aeruginosa 5541 after 24 hr by starch hydrolysis assay; assay type: functional, organism-based
Bacillus subtilis [37] = assay: Effect on lipase production in Bacillus subtilis 10.10.2006 after 7 days; assay type: functional, organism-based
Staphylococcus aureus [38] = assay: Effect on gelatinase production in Staphylococcus aureus after 24 hr by gelatin hydrolysis test; assay type: functional, organism-based
Acinetobacter baumannii [39] = assay: Effect on esculethol production in Acinetobacter baumannii 15896 after 24 hr by esculin hydrolysis test; assay type: functional, organism-based
Enterococcus faecalis [40] = assay: Effect on amylase production in Enterococcus faecalis 13773 after 24 hr by starch hydrolysis assay; assay type: functional, organism-based
Klebsiella pneumoniae [41] = assay: Inhibition of caseinase production in Klebsiella pneumoniae 126/2007 after 24 hr by casein hydrolysis assay; assay type: functional, organism-based
Pseudomonas aeruginosa [42] = assay: Inhibition of lecithinase production in Pseudomonas aeruginosa 5541 after 7 days; assay type: functional, organism-based
Acinetobacter baumannii [43] = assay: Inhibition of lecithinase production in Acinetobacter baumannii 15896 after 7 days; assay type: functional, organism-based
Escherichia coli [44] = assay: Effect on lipase production in Escherichia coli 637/2007 after 7 days; assay type: functional, organism-based
Pseudomonas aeruginosa [45] = assay: Effect on gelatinase production in Pseudomonas aeruginosa 5541 after 24 hr by gelatin hydrolysis test; assay type: functional, organism-based
Escherichia coli [46] = assay: Antimicrobial activity against Escherichia coli 637/2007 by microdilution method; assay type: functional
Acinetobacter baumannii [47] = assay: Effect on gelatinase production in Acinetobacter baumannii 15896 after 24 hr by gelatin hydrolysis test; assay type: functional, organism-based
Escherichia coli [48] = assay: Effect on DNase production in Escherichia coli 637/2007 after 24 hr; assay type: functional, organism-based
Staphylococcus aureus [49] = assay: Effect on DNase production in Staphylococcus aureus after 24 hr; assay type: functional, organism-based
Escherichia coli [50] = assay: Effect on gelatinase production in Escherichia coli 637/2007 after 24 hr by gelatin hydrolysis test; assay type: functional, organism-based
Klebsiella pneumoniae [51] = assay: Antimicrobial activity against Klebsiella pneumoniae 126/2007 by microdilution method; assay type: functional
Klebsiella pneumoniae [52] = assay: Effect on DNase production in Klebsiella pneumoniae 126/2007 after 24 hr; assay type: functional, organism-based
Escherichia coli [53] = assay: Inhibition of lecithinase production in Escherichia coli 637/2007 after 7 days; assay type: functional, organism-based
Bacillus subtilis [54] = assay: Antimicrobial activity against Bacillus subtilis 10.10.2006 by microdilution method; assay type: functional
Klebsiella pneumoniae [55] = assay: Effect on lipase production in Klebsiella pneumoniae 126/2007 after 7 days; assay type: functional, organism-based
Pseudomonas aeruginosa [56] = assay: Effect on esculethol production in Pseudomonas aeruginosa 5541 after 24 hr by esculin hydrolysis test; assay type: functional, organism-based

Activity (Acinetobacter baumannii [1]): inactive
Activity (Enterococcus faecalis [4]): inactive
Activity (Acinetobacter baumannii [7]): inactive
inhibition (Acinetobacter baumannii [8]): inactive
Activity (Pseudomonas aeruginosa [9]): inactive
MIC (Enterococcus faecalis [10]): 250 µg/mL (≈ 0.827 mM)
inhibition (Enterococcus faecalis [11]): inactive
Activity (Acinetobacter baumannii [12]): inactive
Activity (Bacillus subtilis [15]): inactive
Activity (Klebsiella pneumoniae [17]): inactive
inhibition (Bacillus subtilis [18]): inactive
Activity (Enterococcus faecalis [19]): inactive
MIC (Staphylococcus aureus [20]): 500 µg/mL (≈ 1.65 mM)
Activity (Bacillus subtilis [21]): inactive
Activity (Klebsiella pneumoniae [22]): inactive
inhibition (Pseudomonas aeruginosa [25]): inactive
Activity (Enterococcus faecalis [27]): inactive
inhibition (Enterococcus faecalis [28]): inactive
MIC (Pseudomonas aeruginosa [29]): 1000 µg/mL (≈ 3.31 mM)
MIC (Acinetobacter baumannii [30]): 250 µg/mL (≈ 0.827 mM)
Activity (Pseudomonas aeruginosa [31]): inactive
inhibition (Bacillus subtilis [33]): inactive
inhibition (Klebsiella pneumoniae [34]): inactive
Activity (Bacillus subtilis [35]): inactive
Activity (Pseudomonas aeruginosa [36]): inactive
Activity (Bacillus subtilis [37]): inactive
Activity (Enterococcus faecalis [40]): inactive
inhibition (Klebsiella pneumoniae [41]): inactive
inhibition (Pseudomonas aeruginosa [42]): inactive
inhibition (Acinetobacter baumannii [43]): inactive
Activity (Pseudomonas aeruginosa [45]): inactive
MIC (Escherichia coli [46]): 1000 µg/mL (≈ 3.31 mM)
Activity (Acinetobacter baumannii [47]): inactive
MIC (Klebsiella pneumoniae [51]): 500 µg/mL (≈ 1.65 mM)
Activity (Klebsiella pneumoniae [52]): inactive
MIC (Bacillus subtilis [54]): 500 µg/mL (≈ 1.65 mM)
Activity (Klebsiella pneumoniae [55]): inactive
SMILES: CCCc1ccccc1NC(=S)NC(=O)c1cnn(C)c1
Activity (Staphylococcus aureus [2]): inactive
Activity (Bacillus subtilis [3]): inactive
Activity (Enterococcus faecalis [5]): inactive
Activity (Staphylococcus aureus [6]): inactive
Activity (Staphylococcus aureus [13]): inactive
inhibition (Staphylococcus aureus [14]): inactive
Activity (Klebsiella pneumoniae [16]): inactive
inhibition (Escherichia coli [23]): Active
inhibition (Staphylococcus aureus [24]): inactive
Activity (Escherichia coli [26]): inactive
Activity (Escherichia coli [32]): inactive
Activity (Staphylococcus aureus [38]): inactive
Activity (Acinetobacter baumannii [39]): inactive
Activity (Escherichia coli [44]): inactive
Activity (Escherichia coli [48]): inactive
Activity (Staphylococcus aureus [49]): inactive
Activity (Escherichia coli [50]): inactive
inhibition (Escherichia coli [53]): inactive
Activity (Pseudomonas aeruginosa [56]): inactive

MIC (Enterococcus faecalis [10]): > 1000 µg/mL
MIC (Staphylococcus aureus [20]): > 1000 µg/mL
MIC (Pseudomonas aeruginosa [29]): > 1000 µg/mL
MIC (Acinetobacter baumannii [30]): > 1000 µg/mL
MIC (Escherichia coli [46]): > 1000 µg/mL
MIC (Klebsiella pneumoniae [51]): > 1000 µg/mL
MIC (Bacillus subtilis [54]): > 1000 µg/mL
SMILES: CCC(C)c1ccc(NC(=S)NC(=O)c2cnn(C)c2)cc1 (stereo unspecified)

Activity (Acinetobacter baumannii [1]): inactive
Activity (Enterococcus faecalis [4]): inactive
Activity (Acinetobacter baumannii [7]): inactive
inhibition (Acinetobacter baumannii [8]): inactive
Activity (Pseudomonas aeruginosa [9]): inactive
MIC (Enterococcus faecalis [10]): > 1000 µg/mL
inhibition (Enterococcus faecalis [11]): inactive
Activity (Acinetobacter baumannii [12]): inactive
Activity (Bacillus subtilis [15]): inactive
Activity (Klebsiella pneumoniae [17]): inactive
inhibition (Bacillus subtilis [18]): inactive
Activity (Enterococcus faecalis [19]): inactive
MIC (Staphylococcus aureus [20]): 250 µg/mL (≈ 0.867 mM)
Activity (Bacillus subtilis [21]): inactive
Activity (Klebsiella pneumoniae [22]): inactive
inhibition (Pseudomonas aeruginosa [25]): inactive
Activity (Enterococcus faecalis [27]): inactive
inhibition (Enterococcus faecalis [28]): inactive
MIC (Pseudomonas aeruginosa [29]): 500 µg/mL (≈ 1.73 mM)
MIC (Acinetobacter baumannii [30]): 250 µg/mL (≈ 0.867 mM)
Activity (Pseudomonas aeruginosa [31]): inactive
inhibition (Bacillus subtilis [33]): inactive
inhibition (Klebsiella pneumoniae [34]): Active
Activity (Bacillus subtilis [35]): inactive
Activity (Pseudomonas aeruginosa [36]): inactive
Activity (Bacillus subtilis [37]): inactive
Activity (Enterococcus faecalis [40]): inactive
inhibition (Klebsiella pneumoniae [41]): inactive
inhibition (Pseudomonas aeruginosa [42]): inactive
inhibition (Acinetobacter baumannii [43]): inactive
Activity (Pseudomonas aeruginosa [45]): inactive
MIC (Escherichia coli [46]): > 1000 µg/mL
Activity (Acinetobacter baumannii [47]): inactive
MIC (Klebsiella pneumoniae [51]): 1000 µg/mL (≈ 3.47 mM)
Activity (Klebsiella pneumoniae [52]): inactive
MIC (Bacillus subtilis [54]): 1000 µg/mL (≈ 3.47 mM)
Activity (Klebsiella pneumoniae [55]): inactive
SMILES: CCc1ccccc1NC(=S)NC(=O)c1cnn(C)c1
Activity (Staphylococcus aureus [2]): inactive
Activity (Bacillus subtilis [3]): inactive
Activity (Enterococcus faecalis [5]): inactive
Activity (Staphylococcus aureus [6]): inactive
Activity (Staphylococcus aureus [13]): inactive
inhibition (Staphylococcus aureus [14]): inactive
Activity (Klebsiella pneumoniae [16]): inactive
inhibition (Escherichia coli [23]): inactive
inhibition (Staphylococcus aureus [24]): inactive
Activity (Escherichia coli [26]): inactive
Activity (Escherichia coli [32]): inactive
Activity (Staphylococcus aureus [38]): inactive
Activity (Acinetobacter baumannii [39]): inactive
Activity (Escherichia coli [44]): inactive
Activity (Escherichia coli [48]): inactive
Activity (Staphylococcus aureus [49]): inactive
Activity (Escherichia coli [50]): inactive
inhibition (Escherichia coli [53]): inactive
Activity (Pseudomonas aeruginosa [56]): inactive

MIC (Enterococcus faecalis [10]): > 1000 µg/mL
MIC (Staphylococcus aureus [20]): > 1000 µg/mL
MIC (Pseudomonas aeruginosa [29]): > 1000 µg/mL
MIC (Acinetobacter baumannii [30]): > 1000 µg/mL
MIC (Escherichia coli [46]): > 1000 µg/mL
MIC (Klebsiella pneumoniae [51]): 1000 µg/mL (≈ 3.31 mM)
MIC (Bacillus subtilis [54]): > 1000 µg/mL
SMILES: CC(C)c1ccccc1NC(=S)NC(=O)c1cnn(C)c1
